What is called EC50 is the concentration needed to bring the measured effect to its halfway point. Broadly, the AC50 is the concentration giving half of the maximal activity seen.

Experiment [1] addresses T1, Eukaryotic translation initiation factor 2-alpha kinase 3 (Homo sapiens, UniProt Q9NZJ5). The experiment in a line: Dose response cell-based high-throughput screening assay to measure PERK inhibition. [Related pubchem assays: 1416 ]. Type of experiment: functional.
Experiment [2] has as its target T1, Eukaryotic translation initiation factor 2-alpha kinase 3. The experiment in a line: Counterscreen assay for PERK inhibitors: Dose response cell-based high throughput screening assay to measure inhibition of PERK at 6 hours. [Related pubchem assays: 1522, 1416 ]. Type of experiment: functional. (Counterscreens check selectivity or assay interference.)
The next experiment addresses Large T antigen (Simian virus 40, UniProt P03070). The class given is functional, Betapolyomavirus macacae.
In a further experiment the target is T2, Aspartyl aminopeptidase (Plasmodium falciparum 3D7, UniProt Q8I2J3).
T2 sequence (Q8I2J3 whole entry): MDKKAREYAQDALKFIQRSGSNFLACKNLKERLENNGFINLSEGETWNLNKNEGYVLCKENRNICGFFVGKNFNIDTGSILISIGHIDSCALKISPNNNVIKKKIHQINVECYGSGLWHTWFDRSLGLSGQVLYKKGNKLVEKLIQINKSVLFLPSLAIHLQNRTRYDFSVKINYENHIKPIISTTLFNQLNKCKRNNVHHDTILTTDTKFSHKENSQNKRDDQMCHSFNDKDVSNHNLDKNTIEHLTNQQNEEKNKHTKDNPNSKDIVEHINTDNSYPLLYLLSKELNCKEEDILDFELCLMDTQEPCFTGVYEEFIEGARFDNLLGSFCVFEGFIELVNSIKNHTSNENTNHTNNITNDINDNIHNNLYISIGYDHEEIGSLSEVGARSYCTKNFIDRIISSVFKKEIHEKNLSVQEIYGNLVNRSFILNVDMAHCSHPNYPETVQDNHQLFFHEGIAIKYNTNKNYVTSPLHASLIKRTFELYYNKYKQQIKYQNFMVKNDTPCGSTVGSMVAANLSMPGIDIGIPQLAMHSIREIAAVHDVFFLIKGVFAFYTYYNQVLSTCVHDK

A further experiment addresses Procathepsin L (Homo sapiens, UniProt P07711).
The target in experiment [3] is RNA-editing ligase 1, mitochondrial (Trypanosoma brucei brucei, UniProt P86926). In words: inhibition of trypanosome RNA editing ligase – biochemical, fluorescence, Trypanosoma brucei, dose response (AID 1117295). The class given is functional.
The target in experiment [4] is Lysosomal acid glucosylceramidase (Homo sapiens, UniProt P04062). In words: Dose response cell-based high throughput screening assay to identify enhancers of beta-glucosidase activity. [Related pubchem assays: 784 ]. The class given is functional.
For experiment [5], the target named is T3, Small ubiquitin-related modifier 1 (Homo sapiens, UniProt P63165). The experiment in a line: SUMO1 protein-protein binding blockers, potency – biochemical, FRET, dose response (AID 624383). The class given is functional. To be noted: read-out: IC50_Mean.
T3 sequence (P63165 whole entry): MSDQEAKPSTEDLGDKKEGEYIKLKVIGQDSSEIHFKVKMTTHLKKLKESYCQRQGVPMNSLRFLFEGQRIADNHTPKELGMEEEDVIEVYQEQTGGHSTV
In experiment [6] the target is T4, Voltage-gated N-type calcium channel alpha-1B subunit/Amyloid beta A4 precursor protein-binding family A member 1 (Homo sapiens, UniProt Q00975+Q02410). The experiment in a line: disruptors of Mint-PDZ/N-type channel peptide interaction – biochemical, HTRF, SAR follow-up (AID 2489). Type of experiment: functional.
T4 sequence (Q00975 whole entry): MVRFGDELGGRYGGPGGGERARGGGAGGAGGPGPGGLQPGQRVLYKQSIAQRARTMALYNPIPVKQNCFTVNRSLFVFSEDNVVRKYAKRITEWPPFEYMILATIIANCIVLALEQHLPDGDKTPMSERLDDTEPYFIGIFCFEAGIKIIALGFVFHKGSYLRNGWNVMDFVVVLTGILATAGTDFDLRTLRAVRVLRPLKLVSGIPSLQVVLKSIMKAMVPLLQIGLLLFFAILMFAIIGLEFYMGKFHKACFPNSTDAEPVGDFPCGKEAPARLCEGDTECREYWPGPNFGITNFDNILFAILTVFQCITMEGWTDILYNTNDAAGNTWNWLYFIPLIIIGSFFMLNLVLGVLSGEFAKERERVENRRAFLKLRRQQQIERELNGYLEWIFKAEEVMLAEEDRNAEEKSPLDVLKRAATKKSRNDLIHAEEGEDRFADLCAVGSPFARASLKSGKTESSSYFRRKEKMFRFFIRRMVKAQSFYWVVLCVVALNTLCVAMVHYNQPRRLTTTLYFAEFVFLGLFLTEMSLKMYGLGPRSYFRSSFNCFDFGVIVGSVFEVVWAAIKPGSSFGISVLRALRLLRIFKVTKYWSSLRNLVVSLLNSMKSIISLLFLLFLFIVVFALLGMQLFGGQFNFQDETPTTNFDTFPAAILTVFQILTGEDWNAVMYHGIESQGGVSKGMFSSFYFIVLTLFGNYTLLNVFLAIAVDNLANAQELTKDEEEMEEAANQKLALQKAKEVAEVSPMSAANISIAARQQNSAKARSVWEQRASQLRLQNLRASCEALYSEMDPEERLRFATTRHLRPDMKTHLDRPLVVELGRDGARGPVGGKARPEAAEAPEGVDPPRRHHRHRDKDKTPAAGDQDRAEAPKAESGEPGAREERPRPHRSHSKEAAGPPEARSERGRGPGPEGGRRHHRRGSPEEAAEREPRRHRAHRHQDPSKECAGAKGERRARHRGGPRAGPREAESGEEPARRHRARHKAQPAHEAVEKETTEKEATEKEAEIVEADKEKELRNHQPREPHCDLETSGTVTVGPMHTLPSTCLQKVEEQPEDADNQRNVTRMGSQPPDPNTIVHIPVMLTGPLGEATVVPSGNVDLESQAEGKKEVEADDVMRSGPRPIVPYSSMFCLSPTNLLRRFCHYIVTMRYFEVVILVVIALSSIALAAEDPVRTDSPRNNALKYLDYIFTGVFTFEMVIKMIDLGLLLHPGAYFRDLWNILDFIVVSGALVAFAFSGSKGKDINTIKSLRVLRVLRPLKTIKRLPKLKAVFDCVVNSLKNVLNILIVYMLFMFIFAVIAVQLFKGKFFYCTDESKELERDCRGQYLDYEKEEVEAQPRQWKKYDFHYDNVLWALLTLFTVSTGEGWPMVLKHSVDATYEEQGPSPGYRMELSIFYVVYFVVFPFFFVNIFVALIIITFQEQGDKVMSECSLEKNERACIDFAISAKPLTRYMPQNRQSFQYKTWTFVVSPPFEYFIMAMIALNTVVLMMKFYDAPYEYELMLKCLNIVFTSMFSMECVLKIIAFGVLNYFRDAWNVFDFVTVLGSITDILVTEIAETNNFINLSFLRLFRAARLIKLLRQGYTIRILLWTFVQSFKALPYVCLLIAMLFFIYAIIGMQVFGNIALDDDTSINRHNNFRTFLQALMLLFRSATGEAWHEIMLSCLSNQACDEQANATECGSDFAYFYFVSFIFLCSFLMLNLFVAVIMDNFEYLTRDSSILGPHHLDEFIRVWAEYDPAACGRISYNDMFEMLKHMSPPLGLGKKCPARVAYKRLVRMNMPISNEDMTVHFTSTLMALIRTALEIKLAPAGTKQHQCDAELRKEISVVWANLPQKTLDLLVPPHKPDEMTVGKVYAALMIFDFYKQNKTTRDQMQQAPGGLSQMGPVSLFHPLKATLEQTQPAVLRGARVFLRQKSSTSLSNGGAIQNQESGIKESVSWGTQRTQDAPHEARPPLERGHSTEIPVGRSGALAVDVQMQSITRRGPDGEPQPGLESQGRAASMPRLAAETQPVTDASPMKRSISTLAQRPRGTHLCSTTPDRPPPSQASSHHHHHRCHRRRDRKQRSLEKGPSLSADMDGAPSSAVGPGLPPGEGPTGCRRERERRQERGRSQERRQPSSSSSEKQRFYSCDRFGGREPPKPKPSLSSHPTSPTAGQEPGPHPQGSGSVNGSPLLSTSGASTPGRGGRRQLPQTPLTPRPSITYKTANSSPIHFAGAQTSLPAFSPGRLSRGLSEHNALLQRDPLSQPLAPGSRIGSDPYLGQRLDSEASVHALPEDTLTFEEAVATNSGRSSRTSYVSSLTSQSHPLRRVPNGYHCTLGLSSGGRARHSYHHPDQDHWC
T4 sequence (Q02410 whole entry): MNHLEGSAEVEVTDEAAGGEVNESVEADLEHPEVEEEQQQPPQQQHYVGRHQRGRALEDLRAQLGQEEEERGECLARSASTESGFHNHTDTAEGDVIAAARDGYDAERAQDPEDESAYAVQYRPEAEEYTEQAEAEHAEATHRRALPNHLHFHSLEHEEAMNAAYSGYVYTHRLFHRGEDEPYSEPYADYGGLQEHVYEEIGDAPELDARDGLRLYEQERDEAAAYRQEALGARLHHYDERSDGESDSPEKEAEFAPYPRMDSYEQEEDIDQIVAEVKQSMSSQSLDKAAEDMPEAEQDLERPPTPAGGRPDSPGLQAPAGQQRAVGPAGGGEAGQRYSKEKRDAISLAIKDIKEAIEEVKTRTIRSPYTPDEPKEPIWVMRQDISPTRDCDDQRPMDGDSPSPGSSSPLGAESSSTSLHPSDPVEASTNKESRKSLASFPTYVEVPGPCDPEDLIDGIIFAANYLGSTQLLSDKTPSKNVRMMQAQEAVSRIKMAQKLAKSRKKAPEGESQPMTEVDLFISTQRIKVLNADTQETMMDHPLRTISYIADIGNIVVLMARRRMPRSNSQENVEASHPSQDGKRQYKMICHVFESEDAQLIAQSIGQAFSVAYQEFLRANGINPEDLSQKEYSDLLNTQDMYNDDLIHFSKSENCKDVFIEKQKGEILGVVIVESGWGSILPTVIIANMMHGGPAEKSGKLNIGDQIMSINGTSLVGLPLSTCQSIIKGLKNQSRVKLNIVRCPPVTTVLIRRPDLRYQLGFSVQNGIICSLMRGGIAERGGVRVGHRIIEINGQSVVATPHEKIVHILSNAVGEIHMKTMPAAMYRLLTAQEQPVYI
Experiment [7] concerns the target T4, Voltage-gated N-type calcium channel alpha-1B subunit/Amyloid beta A4 precursor protein-binding family A member 1. Type of experiment: protein assay.
Another experiment deals with Genome polyprotein (Hepatitis C virus, UniProt Q2Q167). The experiment in a line: disruption of hepatitis C core self-association – biochemical, TR-FRET, dose response (AID 2159).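 Further: blocks dimerization of HCV core protein measured by TR-FRET between tagged core106 pairs.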 Details: species or system Hepacivirus hominis.
Chain of Genome polyprotein (Q2Q167 whole entry): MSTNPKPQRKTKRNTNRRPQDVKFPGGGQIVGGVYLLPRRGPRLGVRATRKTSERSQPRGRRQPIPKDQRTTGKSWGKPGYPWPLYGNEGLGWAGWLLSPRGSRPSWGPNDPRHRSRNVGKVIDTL
The target of experiment [8] is T3, Small ubiquitin-related modifier 1. In words: SUMO1 protein interaction blockers, potency – biochemical, fluorescence polarization, uHTS hits, dose response (AID 624382). The class given is functional. To be noted: read-out: IC50_Mean. In general terms: In fluorescence polarisation assays a small probe gives low polarisation when free and higher when bound to something large.

Another experiment concerns the target SUMO E1/E2 (Homo sapiens, UniProt P63279+Q9UBE0+Q9UBT2). The experiment in a line: SAR analysis of SUMOylation using HTRF in an in-Vitro dose response assay. [Related pubchem assays (depositor defined):AID2006, AID2011, AID2018, AID2069, AID2658]. Type of experiment: functional. On the technique in general: TR-FRET usually uses a lanthanide donor and a delayed reading to cut background.

The target of experiment [9] is T4, Voltage-gated N-type calcium channel alpha-1B subunit/Amyloid beta A4 precursor protein-binding family A member 1. Type of experiment: protein assay. The source holds these as a separate data set.
Experiment [10] has the same target. The experiment in a line: disruptors of Mint-PDZ/N-type channel peptide interaction – biochemical, HTRF, set 2, SAR follow-up (AID 434980). The class given is functional.
For experiment [11], the target named is Induced myeloid leukemia cell differentiation protein Mcl-1 (Homo sapiens, UniProt Q07820). Type of experiment: functional.
For another experiment, the target named is Albumin (Bos taurus, UniProt P02769). In words: Counterscreen for inhibitors of T-cell receptor (TCR)-CD3 interaction: Fluorescence-based biochemical high throughput dose response assay to identify inhibitors of T-cell receptor (TCR)-CD3 interaction using a TAMRA-labeled BSA probe. Type of experiment: functional.
The target of experiment [12] is G-protein coupled receptor 35 (Homo sapiens, UniProt Q9HC97). In words: inhibition of zaprinast-stimulated GPR35 beta-arrestin translocation – imaging, U2OS, beta-arrestin-GFP, zaprinast agonist, primary screen (AID 2058).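 Further: antagonist potency meaning inhibition of agonist-induced arrestin redistribution.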 Type of experiment: functional.
Experiment [13] deals with T5, Estrogen receptor beta (Homo sapiens, UniProt Q92731). In words: blockers of SRC-3 recruitment to ERβ – biochemical, ELISA, streptavidin-HRP readout, orthogonal assay, confirmation (AID 1060).
T5 sequence (Q92731 whole entry): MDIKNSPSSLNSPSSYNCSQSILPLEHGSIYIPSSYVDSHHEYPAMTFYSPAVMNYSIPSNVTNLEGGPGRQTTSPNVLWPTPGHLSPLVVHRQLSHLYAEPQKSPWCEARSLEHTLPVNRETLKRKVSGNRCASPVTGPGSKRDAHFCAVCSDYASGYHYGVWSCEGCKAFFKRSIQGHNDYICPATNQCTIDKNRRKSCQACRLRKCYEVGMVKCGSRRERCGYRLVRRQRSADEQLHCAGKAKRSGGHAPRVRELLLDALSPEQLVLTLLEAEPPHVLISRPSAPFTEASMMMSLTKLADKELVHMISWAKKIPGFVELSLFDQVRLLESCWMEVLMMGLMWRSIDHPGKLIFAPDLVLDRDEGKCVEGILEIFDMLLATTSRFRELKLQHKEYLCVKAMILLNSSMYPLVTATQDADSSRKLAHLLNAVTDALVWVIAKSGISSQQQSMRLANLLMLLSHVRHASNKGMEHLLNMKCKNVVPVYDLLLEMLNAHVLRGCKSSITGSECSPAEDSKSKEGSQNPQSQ
Experiment [14] deals with T5, Estrogen receptor beta.
A further experiment concerns the target Bcl-2-like protein 10 (Homo sapiens, UniProt Q9HD36). The experiment in a line: Bcl-B/TR3 peptide binding disruption – biochemical, fluorescence polarization, FITC-TR3 peptide, selectivity assay for Bfl-1 inhibitor project, primary screen (AID 748).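 Further: fluorescence polarization from a fluorescein-labelled TR3 peptide binding purified Bcl-B.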
In experiment [15] the test system is Vibrio harveyi. In words: LuxS/LuxPQ-dependent luminescence inhibition, V. harveyi – dry powder, set 2, dose response (AID 493072). Type of experiment: functional, organism-based.
In experiment [16] the test system is Vibrio harveyi. The experiment in a line: Quorum Sensing, LuxS, LuxPQ Measured in Microorganism System Using Plate Reader - 2035-01_Inhibitor_DoseNoFile_DryPowder_Activity. [Related pubchem assays (depositor defined):AID2106]. The class given is functional, organism-based.
Another experiment addresses Protein Rev (Human immunodeficiency virus type 1 group M subtype B (isolate WMJ22)(HIV-1), UniProt P05866). The experiment in a line: inhibitors of Rev protein–RRE RNA complex – biochemical, protein-RNA interaction, dose response (AID 842). Also on record: species or system Human immunodeficiency virus 1.
The target of the next experiment is Wee1-like protein kinase (Homo sapiens, UniProt P30291). The experiment in a line: HeLa cell cycle G2/M accumulation – FACS, mechanism study for Wee1 degradation inhibitor project, late-stage follow-up, panel member Wee1 Degradation (AID 2088).
Experiment [17] concerns the target G2/mitotic-specific cyclin-B1 (Homo sapiens, UniProt P14635). In words: HeLa cell cycle G2/M accumulation – FACS, mechanism study for Wee1 degradation inhibitor project, late-stage follow-up, panel member Cyclin B Degradation (AID 2088).
Experiment [18] has as its target T6, Alkaline phosphatase, tissue-nonspecific isozyme (Homo sapiens, UniProt P05186).
T6 sequence (P05186 whole entry): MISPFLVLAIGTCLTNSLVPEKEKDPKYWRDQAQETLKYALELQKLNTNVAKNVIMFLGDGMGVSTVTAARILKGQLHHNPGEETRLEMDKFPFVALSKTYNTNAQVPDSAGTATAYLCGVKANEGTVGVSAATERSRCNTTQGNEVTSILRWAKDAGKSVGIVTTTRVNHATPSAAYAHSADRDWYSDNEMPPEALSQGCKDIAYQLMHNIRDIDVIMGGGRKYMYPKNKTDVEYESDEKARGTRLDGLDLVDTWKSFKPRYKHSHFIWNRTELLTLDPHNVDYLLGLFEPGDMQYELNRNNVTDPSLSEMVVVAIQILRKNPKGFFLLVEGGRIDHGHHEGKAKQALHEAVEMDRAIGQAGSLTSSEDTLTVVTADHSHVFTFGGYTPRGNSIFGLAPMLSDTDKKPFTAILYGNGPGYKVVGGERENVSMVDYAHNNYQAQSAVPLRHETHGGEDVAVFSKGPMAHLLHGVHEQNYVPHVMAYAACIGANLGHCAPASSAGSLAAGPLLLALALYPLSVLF

Experiment [19] can be described thus: NIH3T3 cell viability loss – ATP luminescence, mouse fibroblasts, counter-screen, dose response (AID 2010).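 Further: cells exposed to compound for about 90 hours before reading.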 The class given is functional, cell-based.
Experiment [20] is described as follows: Trypanosoma cruzi growth suppression in host cells – NIH3T3 host cells, beta-gal luminescence, confirmation (AID 2044).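 Further: intracellular parasites grown in NIH/3T3 mouse fibroblasts as host cells; luminescent beta-galactosidase reporter signal from transgenic T. cruzi replicating inside host cells; inhibitors lower the luminescence signal.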 The class given is functional, cell-based.

Calls of active or inactive are those of the source. Where only a bound is given, the exact number is not on record here.

T1 sequence (Q9NZJ5 whole entry): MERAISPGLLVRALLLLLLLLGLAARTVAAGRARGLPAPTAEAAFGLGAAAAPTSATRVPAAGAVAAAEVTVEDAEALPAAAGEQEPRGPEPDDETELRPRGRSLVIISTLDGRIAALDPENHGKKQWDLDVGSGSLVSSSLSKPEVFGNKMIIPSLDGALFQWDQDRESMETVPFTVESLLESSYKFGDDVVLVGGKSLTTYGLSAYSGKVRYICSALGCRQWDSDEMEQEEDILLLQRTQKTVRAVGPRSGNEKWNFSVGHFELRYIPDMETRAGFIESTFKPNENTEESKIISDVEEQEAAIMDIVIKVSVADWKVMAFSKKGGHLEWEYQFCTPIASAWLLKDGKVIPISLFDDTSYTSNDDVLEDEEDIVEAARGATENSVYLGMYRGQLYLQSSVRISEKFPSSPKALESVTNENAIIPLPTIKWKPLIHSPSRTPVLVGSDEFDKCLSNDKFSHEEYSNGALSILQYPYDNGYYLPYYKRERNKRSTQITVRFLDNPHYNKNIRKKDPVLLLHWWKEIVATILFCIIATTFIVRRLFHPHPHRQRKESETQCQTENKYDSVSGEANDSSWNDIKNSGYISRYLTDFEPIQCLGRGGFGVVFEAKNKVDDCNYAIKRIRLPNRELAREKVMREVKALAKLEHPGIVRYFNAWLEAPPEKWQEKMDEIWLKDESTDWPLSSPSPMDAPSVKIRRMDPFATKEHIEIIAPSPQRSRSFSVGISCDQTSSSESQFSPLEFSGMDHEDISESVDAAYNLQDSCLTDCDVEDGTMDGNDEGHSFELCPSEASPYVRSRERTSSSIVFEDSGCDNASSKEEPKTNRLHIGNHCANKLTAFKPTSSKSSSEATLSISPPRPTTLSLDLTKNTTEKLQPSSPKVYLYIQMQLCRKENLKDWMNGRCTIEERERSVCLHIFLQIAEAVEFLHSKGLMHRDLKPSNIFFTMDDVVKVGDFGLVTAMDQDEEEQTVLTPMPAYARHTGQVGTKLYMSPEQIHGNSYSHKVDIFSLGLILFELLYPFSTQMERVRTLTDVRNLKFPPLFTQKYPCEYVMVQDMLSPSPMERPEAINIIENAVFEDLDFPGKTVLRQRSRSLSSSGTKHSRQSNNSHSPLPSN

Take `COc1ccc(Nc2nnc(C)c(O)n2)c(OC)c1`: the EC50 in [1] and in experiment [2] was > 55.7 µM (not active) in each case.
On to `O=C1NC(=O)C(=Cc2ccc(-c3ccc(F)cc3O)o2)C(=O)N1`, for which the IC50 was 39.9 µM (active) at Large T antigen, 4.13 µM (active) at Aspartyl aminopeptidase, > 59.6 µM (not active) against Procathepsin L and 63.8 µM (inactive) in experiment [3].
Turning to `COc1ccc(CN(Cc2cc3cccc(C)c3nc2O)C(=O)N(C)C)cc1`, the EC50 in experiment [4] is recorded as > 10 µM (not active).
As to `CN(C(=O)COC(=O)c1cc(-c2ccco2)nc2ccccc12)C1CCS(=O)(=O)C1` (stereo not given), the IC50 in experiment [5] was 4.99 µM (active); in experiment [6], 4.74 µM (active); in experiment [7], 2.15 µM (active); against Genome polyprotein, > 49.8 µM (not active); in experiment [8], > 66.6 µM (inactive); on SUMO E1/E2, 2.66 µM (active). The IC50 in experiment [9] is 28.8 µM (active); in [10] it was 3.26 µM (active); in experiment [11] it was 1.59 µM (active); on Albumin, > 94.1 µM (inactive).
For the compound `Cc1nnc(NC(=O)c2sc3nc(-c4cccs4)cc(C(F)(F)F)c3c2N)s1`, the IC50 in experiment [12] was 0.61 µM (active).
For the compound `Cc1ccc(S(=O)(=O)Cc2ccc(C(=O)N3CCc4ccccc4C3)o2)cc1`, the IC50 on Estrogen receptor beta [13] was < 0.023 µM (not active); at Estrogen receptor beta [14], 4.88 µM (active); on Bcl-2-like protein 10 it was 20.5 µM (active).
For the compound `Cn1cnc(S(=O)(=O)Nc2ccc(OC(F)(F)F)cc2)c1`, the AC50 is 4.67 µM (active) in the experiment with Vibrio harveyi [15], 5.06 µM (active) in the experiment with Vibrio harveyi [15] (Vibrio harveyi) and 3.13 µM (active) in the experiment on Vibrio harveyi [16].
Regarding `COc1ccc(C2N=C(N)N=C(N)N2c2ccc(C)cc2)cc1` (stereo not given), on Protein Rev, the IC50 was > 79.4 µM (not active).
On to `CCOC(=O)c1cccc(NC(=O)CCCOc2cc(=O)n(C)c3ccccc23)c1`, for which the EC50 (at Wee1-like protein kinase; in experiment [17]) was > 49.7 µM (inactive) in each case.
`CCOC(=O)c1c(NC(=O)N/N=C/c2ccccc2OCC)sc(C(C)=O)c1C`: the EC50 in experiment [18] is > 100 µM (not active); in experiment [19], > 60 µM (not active); in experiment [20], 2.88 µM (active).

(Values after ChEMBL document CHEMBL1201862, “PubChem BioAssay data set” (2004).)
